From BindingDB's records for patent US20240132473 (Shanghai Xunhe Pharmaceutical Technology Co., 2024) come the findings set out here.

pIC50: −log10 of the molar value.

The target in this test is T1, Interleukin-1 receptor-associated kinase 4 (Homo sapiens, UniProt Q9NWZ3).
T1 sequence (Q9NWZ3 whole entry): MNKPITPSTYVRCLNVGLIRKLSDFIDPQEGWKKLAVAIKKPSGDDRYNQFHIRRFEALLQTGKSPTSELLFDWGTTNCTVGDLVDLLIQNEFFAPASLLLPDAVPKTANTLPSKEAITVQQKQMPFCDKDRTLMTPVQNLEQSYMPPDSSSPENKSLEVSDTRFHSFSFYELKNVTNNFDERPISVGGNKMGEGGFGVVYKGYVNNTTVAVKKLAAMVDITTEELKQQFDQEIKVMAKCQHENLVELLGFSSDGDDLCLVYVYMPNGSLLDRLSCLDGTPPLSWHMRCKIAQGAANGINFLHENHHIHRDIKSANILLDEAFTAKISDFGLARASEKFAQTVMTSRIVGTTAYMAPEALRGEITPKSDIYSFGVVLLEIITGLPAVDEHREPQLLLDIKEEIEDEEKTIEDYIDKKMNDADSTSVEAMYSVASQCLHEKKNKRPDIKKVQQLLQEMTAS
Put plainly: IRAK4 Kinase Inhibitory Activity Assay. As for the experimental part:
The inhibitory activity (IC50) of the compound on IRAK4 kinase under Km ATP was detected by mobility shift assay (MSA). Ten drug concentration gradients were set (initial concentration 1 μM, 3-fold dilution, 2 duplicate wells per concentration). […] After incubation at 28° C. for a period of time, 10 μL of termination buffer was added to terminate the reaction. The conversion rate data was read with Caliper, and then the conversion rate was converted into inhibition rate data. According to the inhibition rate data of each concentration, the IC50 of half inhibitory concentration was calculated by Logit method (Table 3).

In general, pIC50 refers to the IC50 on a negative log10 scale, so that one unit is a factor of ten. Lower therefore signals a high IC50. Turning to `CC(C)(O)c1cc2nn(CCS(C)(=N)=O)cc2cc1NC(=O)c1cccc(C(F)(F)F)n1` (configuration not stated) [US20240132473, Compound MY-004-102], the pIC50 was 6.82.
The compound `COc1cc2nn(CCS(C)(=N)=O)cc2cc1NC(=O)c1cccc(C(F)(F)F)n1` (configuration not stated) [US20240132473, Compound MY-004-103] had a pIC50 of 6.86.
